Reference: patent publication US12703729B2, “GIP agonist compounds and methods” (Zealand Pharma A/S, priority 2014, dated 2026)
Starred links: 1 amine or outer side, 2 acyl side, 3 side chain; linkers in the order of their positions; H or OH if unused. Non-standard residues stand in square brackets, D forms with d. Residues, ends and D or L forms follow the SMILES beside them. Groups on a side chain read outwards from the residue. *: point of attachment. X1 = O=C(O)CCCCCCCCCCCCCCCCCCC(=O)N1CCN(CC(=O)*)CC1; C20 diacid = O=C(O)CCCCCCCCCCCCCCCCCCC(=O)*; γGlu = O=C(O)[C@H](CCC(=O)[*:2])N[*:1]; AEEA = NCCOCCOCC(=O)O; Aib = CC(C)(N)C(=O)O

How the values were obtained:
[1] = target: T1, human GIP receptor (GIP R) (Homo sapiens, UniProt P48546); assay: Activity assay at human GIP receptor, cAMP induction (AlphaScreen), Example 3
T1 sequence (P48546 22-466): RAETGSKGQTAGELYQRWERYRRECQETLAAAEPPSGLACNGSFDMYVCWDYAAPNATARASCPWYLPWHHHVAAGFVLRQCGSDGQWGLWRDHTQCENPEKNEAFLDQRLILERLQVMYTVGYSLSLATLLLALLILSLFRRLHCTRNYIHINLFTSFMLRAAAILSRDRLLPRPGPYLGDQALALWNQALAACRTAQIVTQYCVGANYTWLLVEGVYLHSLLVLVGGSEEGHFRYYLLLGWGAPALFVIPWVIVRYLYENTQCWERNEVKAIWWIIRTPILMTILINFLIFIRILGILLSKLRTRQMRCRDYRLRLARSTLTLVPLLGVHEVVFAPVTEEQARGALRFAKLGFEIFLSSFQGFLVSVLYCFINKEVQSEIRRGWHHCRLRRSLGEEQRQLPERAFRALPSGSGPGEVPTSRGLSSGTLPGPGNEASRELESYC

human GIP R = target: T2, human GIP R (Homo sapiens, UniProt P48546); assay: cell-based
T2 sequence (P48546 22-466): T1 sequence (P48546 22-466)

[2] = target: human GLP-1 receptor (GLP-1R) (Homo sapiens, UniProt P43220); assay: Activity assay at human GLP-1 receptor, cAMP induction (AlphaScreen), Example 3
human GLP-1 receptor (GLP-1R), sequence (P43220 24-463): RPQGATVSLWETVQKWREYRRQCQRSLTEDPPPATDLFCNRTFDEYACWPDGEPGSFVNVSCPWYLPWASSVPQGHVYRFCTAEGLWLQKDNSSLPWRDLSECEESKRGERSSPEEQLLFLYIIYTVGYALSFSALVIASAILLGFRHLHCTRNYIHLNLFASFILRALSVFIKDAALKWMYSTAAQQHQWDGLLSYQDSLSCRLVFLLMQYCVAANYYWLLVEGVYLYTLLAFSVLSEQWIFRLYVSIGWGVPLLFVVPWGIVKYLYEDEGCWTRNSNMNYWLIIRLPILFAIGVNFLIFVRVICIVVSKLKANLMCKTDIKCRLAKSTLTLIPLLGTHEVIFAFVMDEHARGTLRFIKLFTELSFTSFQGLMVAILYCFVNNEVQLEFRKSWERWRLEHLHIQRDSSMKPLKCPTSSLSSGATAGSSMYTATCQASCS

Question: Which results are given for `CC[C@H](C)[C@H](NC(=O)[C@H](CO)NC(=O)[C@H](Cc1ccc(O)cc1)NC(=O)[C@H](CC(=O)O)NC(=O)[C@H](CO)NC(=O)[C@@H](NC(=O)[C@H](Cc1ccccc1)NC(=O)[C@@H](NC(=O)CNC(=O)[C@H](CCC(=O)O)NC(=O)C(C)(C)NC(=O)[C@@H](N)Cc1ccc(O)cc1)[C@@H](C)O)[C@@H](C)CC)C(=O)N[C@@H](CCC(=O)O)C(=O)N[C@@H](CC(C)C)C(=O)N[C@@H](CC(=O)O)C(=O)N[C@@H](CCCCN)C(=O)N[C@@H](CCCCNC(=O)COCCOCCNC(=O)COCCOCCNC(=O)CC[C@H](NC(=O)CCCCCCCCCCCCCCCCCCC(=O)O)C(=O)O)C(=O)N[C@@H](C)C(=O)N[C@@H](CCC(N)=O)C(=O)N[C@@H](CCCCN)C(=O)N[C@@H](CCC(=O)O)C(=O)N[C@@H](Cc1ccccc1)C(=O)N[C@H](C(=O)N[C@@H](CCC(=O)O)C(=O)N[C@@H](Cc1c[nH]c2ccccc12)C(=O)N[C@@H](CC(C)C)C(=O)N[C@@H](CC(C)C)C(=O)N[C@@H](C)C(=O)N[C@@H](C)C(=O)NCC(=O)N1CCC[C@H]1C(=O)N[C@@H](CO)C(=O)N[C@@H](CO)C(=O)NCC(=O)N[C@@H](C)C(=O)N1CCC[C@H]1C(=O)N1CCC[C@H]1C(=O)N1CCC[C@H]1C(=O)N[C@@H](CO)C(N)=O)C(C)C` [Compound 22] (H-Y[Aib]EGTFISDYSIELDKK([AEEA-AEEA-γGlu-C20 diacid])AQKEFVEWLLAAGPSSGAPPPS-NH2)?
Answer: EC50 [1]: 0.007 nM; EC50 (human GIP R): 0.005 nM; EC50 [2]: > 10 nM

Question: With `CC[C@H](C)[C@H](NC(=O)[C@H](CCCCN)NC(=O)[C@H](CC(=O)O)NC(=O)[C@H](CC(C)C)NC(=O)[C@H](CCC(=O)O)NC(=O)[C@@H](NC(=O)[C@H](CO)NC(=O)[C@H](Cc1ccc(O)cc1)NC(=O)[C@H](CC(=O)O)NC(=O)[C@H](CO)NC(=O)[C@@H](NC(=O)[C@H](Cc1ccccc1)NC(=O)[C@@H](NC(=O)CNC(=O)[C@H](CCC(=O)O)NC(=O)C(C)(C)NC(=O)[C@@H](N)Cc1ccc(O)cc1)[C@@H](C)O)[C@@H](C)CC)[C@@H](C)CC)C(=O)N[C@@H](C)C(=O)N[C@@H](CCC(N)=O)C(=O)N[C@@H](CCCNC(=N)N)C(=O)N[C@@H](C)C(=O)N[C@@H](Cc1ccccc1)C(=O)N[C@H](C(=O)N[C@@H](CCC(=O)O)C(=O)N[C@@H](Cc1c[nH]c2ccccc12)C(=O)N[C@@H](CC(C)C)C(=O)N[C@@H](CC(C)C)C(=O)N[C@@H](C)C(=O)NCC(=O)N1CCC[C@H]1C(=O)N[C@@H](CO)C(=O)N[C@@H](CO)C(=O)NCC(=O)N[C@@H](C)C(=O)N1CCC[C@H]1C(=O)N1CCC[C@H]1C(=O)N1CCC[C@H]1C(=O)N[C@@H](CO)C(=O)N[C@@H](CCCCNC(=O)COCCOCCNC(=O)COCCOCCNC(=O)CC[C@H](NC(=O)CCCCCCCCCCCCCCCCCCC(=O)O)C(=O)O)C(N)=O)[C@@H](C)CC` [Compound 23] (H-Y[Aib]EGTFISDYSIELDKIAQRAFIEWLLAGPSSGAPPPSK([AEEA-AEEA-γGlu-C20 diacid])-NH2) as the compound, how does the EC50 [1] read?
Answer: Its EC50 is 0.005 nM.

Question: And the EC50 (human GIP R)?
Answer: Its EC50 is 0.01 nM.

Question: What about the EC50 [2] of the same compound?
Answer: The EC50 was over 10 nM.

Question: How did the EC50 [1] turn out when `CC[C@H](C)[C@H](NC(=O)[C@H](CCCCN)NC(=O)[C@H](CC(=O)O)NC(=O)[C@H](CC(C)C)NC(=O)[C@H](CCC(=O)O)NC(=O)[C@@H](NC(=O)[C@H](CO)NC(=O)[C@H](Cc1ccc(O)cc1)NC(=O)[C@H](CC(=O)O)NC(=O)[C@H](CO)NC(=O)[C@@H](NC(=O)[C@H](Cc1ccccc1)NC(=O)[C@@H](NC(=O)CNC(=O)[C@H](CCC(=O)O)NC(=O)C(C)(C)NC(=O)[C@@H](N)Cc1ccc(O)cc1)[C@@H](C)O)[C@@H](C)CC)[C@@H](C)CC)C(=O)N[C@@H](C)C(=O)N[C@@H](CCC(N)=O)C(=O)N[C@@H](CCCCN)C(=O)N[C@@H](CCC(=O)O)C(=O)N[C@@H](Cc1ccccc1)C(=O)N[C@H](C(=O)N[C@@H](CCC(=O)O)C(=O)N[C@@H](Cc1c[nH]c2ccccc12)C(=O)N[C@@H](CC(C)C)C(=O)N[C@@H](CC(C)C)C(=O)N[C@@H](C)C(=O)NCC(=O)N1CCC[C@H]1C(=O)N[C@@H](CO)C(=O)N[C@@H](CO)C(=O)NCC(=O)N[C@@H](C)C(=O)N1CCC[C@H]1C(=O)N1CCC[C@H]1C(=O)N1CCC[C@H]1C(=O)N[C@@H](CO)C(=O)N[C@@H](CCCCNC(=O)COCCOCCNC(=O)COCCOCCNC(=O)CC[C@H](NC(=O)CCCCCCCCCCCCCCCCCCC(=O)O)C(=O)O)C(N)=O)[C@@H](C)CC` [Compound 24] (H-Y[Aib]EGTFISDYSIELDKIAQKEFIEWLLAGPSSGAPPPSK([AEEA-AEEA-γGlu-C20 diacid])-NH2) was run?
Answer: The EC50 was 0.01 nM.

Question: And the EC50 (human GIP R)?
Answer: The EC50 was 0.008 nM.

Question: What about the EC50 [2] of the same compound?
Answer: Its EC50 is over 10 nM.

Question: Which results are given for `CC[C@H](C)[C@H](NC(=O)[C@H](CCCCN)NC(=O)[C@H](CC(=O)O)NC(=O)[C@H](CC(C)C)NC(=O)[C@H](CCC(=O)O)NC(=O)[C@@H](NC(=O)[C@H](CO)NC(=O)[C@H](Cc1ccc(O)cc1)NC(=O)[C@H](CC(=O)O)NC(=O)[C@H](CO)NC(=O)[C@@H](NC(=O)[C@H](Cc1ccccc1)NC(=O)[C@@H](NC(=O)CNC(=O)[C@H](CCC(=O)O)NC(=O)C(C)(C)NC(=O)[C@@H](N)Cc1ccc(O)cc1)[C@@H](C)O)[C@@H](C)CC)[C@@H](C)CC)C(=O)N[C@@H](C)C(=O)N[C@@H](C)C(=O)N[C@@H](CCC(N)=O)C(=O)N[C@@H](CC(=O)O)C(=O)N[C@@H](Cc1ccccc1)C(=O)N[C@H](C(=O)N[C@@H](CCC(=O)O)C(=O)N[C@@H](Cc1c[nH]c2ccccc12)C(=O)N[C@@H](CC(C)C)C(=O)N[C@@H](CC(C)C)C(=O)N[C@@H](C)C(=O)NCC(=O)N1CCC[C@H]1C(=O)N[C@@H](CO)C(=O)N[C@@H](CO)C(=O)NCC(=O)N[C@@H](C)C(=O)N1CCC[C@H]1C(=O)N1CCC[C@H]1C(=O)N1CCC[C@H]1C(=O)N[C@@H](CO)C(=O)N[C@@H](CCCCNC(=O)COCCOCCNC(=O)COCCOCCNC(=O)CC[C@H](NC(=O)CCCCCCCCCCCCCCCCCCC(=O)O)C(=O)O)C(N)=O)[C@@H](C)CC` [Compound 25] (H-Y[Aib]EGTFISDYSIELDKIAAQDFIEWLLAGPSSGAPPPSK([AEEA-AEEA-γGlu-C20 diacid])-NH2)?
Answer: EC50 [1]: 0.008 nM; EC50 (human GIP R): 0.032 nM; EC50 [2]: > 100 nM

Question: `CC[C@H](C)[C@H](NC(=O)[C@H](CCCCN)NC(=O)[C@H](CC(=O)O)NC(=O)[C@H](CC(C)C)NC(=O)[C@H](CCC(=O)O)NC(=O)[C@@H](NC(=O)[C@H](CO)NC(=O)[C@H](Cc1ccc(O)cc1)NC(=O)[C@H](CC(=O)O)NC(=O)[C@H](CO)NC(=O)[C@@H](NC(=O)[C@H](Cc1ccccc1)NC(=O)[C@@H](NC(=O)CNC(=O)[C@H](CCC(=O)O)NC(=O)C(C)(C)NC(=O)[C@@H](N)Cc1ccc(O)cc1)[C@@H](C)O)[C@@H](C)CC)[C@@H](C)CC)C(=O)N[C@@H](C)C(=O)N[C@@H](C)C(=O)N[C@@H](CCC(N)=O)C(=O)N[C@@H](CC(=O)O)C(=O)N[C@@H](Cc1ccccc1)C(=O)N[C@H](C(=O)N[C@@H](CCC(=O)O)C(=O)N[C@@H](Cc1c[nH]c2ccccc12)C(=O)N[C@@H](CC(C)C)C(=O)N[C@@H](CC(C)C)C(=O)N[C@@H](C)C(=O)NCC(=O)N1CCC[C@H]1C(=O)N[C@@H](CO)C(=O)N[C@@H](CO)C(=O)NCC(=O)N[C@@H](C)C(=O)N1CCC[C@H]1C(=O)N1CCC[C@H]1C(=O)N1CCC[C@H]1C(=O)N[C@@H](CO)C(=O)N[C@@H](CCCCNC(=O)COCCOCCNC(=O)COCCOCCNC(=O)CN1CCN(C(=O)CCCCCCCCCCCCCCCCCCC(=O)O)CC1)C(N)=O)[C@@H](C)CC` [Compound 26] (H-Y[Aib]EGTFISDYSIELDKIAAQDFIEWLLAGPSSGAPPPSK([AEEA-AEEA-X1])-NH2) was tested. Which EC50 [1] did it give?
Answer: The EC50 was 0.032 nM.

Question: What about the EC50 (human GIP R) of the same compound?
Answer: The EC50 was 0.017 nM.

Question: What about the EC50 [2] of the same compound?
Answer: Its EC50 is over 10 nM.

Question: Which results are given for `CC[C@H](C)[C@H](NC(=O)[C@H](CCCCN)NC(=O)[C@H](CC(=O)O)NC(=O)[C@H](CC(C)C)NC(=O)[C@H](CCC(=O)O)NC(=O)[C@@H](NC(=O)[C@H](CO)NC(=O)[C@H](Cc1ccc(O)cc1)NC(=O)[C@H](CC(=O)O)NC(=O)[C@H](CO)NC(=O)[C@@H](NC(=O)[C@H](Cc1ccccc1)NC(=O)[C@@H](NC(=O)CNC(=O)[C@H](CCC(=O)O)NC(=O)C(C)(C)NC(=O)[C@@H](N)Cc1ccc(O)cc1)[C@@H](C)O)[C@@H](C)CC)[C@@H](C)CC)C(=O)N[C@@H](C)C(=O)N[C@@H](C)C(=O)N[C@@H](CCC(N)=O)C(=O)N[C@@H](CC(=O)O)C(=O)N[C@@H](Cc1ccccc1)C(=O)N[C@H](C(=O)N[C@@H](CCC(=O)O)C(=O)N[C@@H](Cc1c[nH]c2ccccc12)C(=O)N[C@@H](CC(C)C)C(=O)N[C@@H](CC(C)C)C(=O)N[C@@H](C)C(=O)NCC(=O)N1CCC[C@H]1C(=O)N[C@@H](CO)C(=O)N[C@@H](CO)C(=O)NCC(=O)N[C@@H](C)C(=O)N1CCC[C@H]1C(=O)N1CCC[C@H]1C(=O)N1CCC[C@H]1C(=O)N[C@@H](CO)C(=O)N[C@@H](CCCCNC(=O)COCCOCCNC(=O)COCCOCCNC(=O)CC[C@H](NC(=O)CCCCCCCCCCCCCCCCCCC(=O)O)C(=O)O)C(N)=O)C(C)C` [Compound 27] (H-Y[Aib]EGTFISDYSIELDKIAAQDFVEWLLAGPSSGAPPPSK([AEEA-AEEA-γGlu-C20 diacid])-NH2)?
Answer: EC50 [1]: 0.017 nM; EC50 (human GIP R): 0.013 nM; EC50 [2]: > 10 nM
